Assay results published in paper PMC8249783, “A novel multikinase inhibitor SKLB‐YTH‐60 ameliorates inflammation and fibrosis in bleomycin‐induced lung fibrosis mouse models” (Cell Proliferation, 2021).

Key:
[1] = tested on: infiltrating inflammatory cells in BALF; test: Bronchoalveolar lavage fluid cell count in BLM mice; format: in vivo, C57BL/6 mice; settings: 30 mg·kg^−1, day 14
Description: (§1) Male C57BL/6 mice (8‐10 weeks old) were purchased from HFK Bioscience Co. Ltd. All animal experiments were permitted by the Institutional Animal Care and Treatment Committee of Sichuan University in China (New Permit Number: 20190524003). Lung fibrosis was induced using BLM treatment (2 mg·kg^−1). All C57BL/6 mice were divided into five groups (n = 10): a BLM + Nintedanib group (Nintedanib, 30 mg·kg^−1), a BLM + YTH‐60 group (YTH‐60, 15 mg·kg^−1 and 30 mg·kg^−1), a control group (Sham), and a bleomycin group (Vehicle). At the beginning, the mice were anaesthetized using 10% chloral hydrate, dissolved BLM with saline and administered intratracheally. To evaluate the preventive effect, the next day after BLM challenge, YTH‐60 and Nintedanib were administered intraperitoneally daily for 13 days (fibroproliferation) to the mice. All mice were sacrificed 24 hours after the last drug injection, the lungs and other organs were taken for the subsequent analysis. To test the therapeutic effect, after the 7th day of BLM treatment, mice were injected intraperitoneally with YTH‐60, Nintedanib and vehicle daily for 7 consecutive days (fibroproliferation).
After the animals were anaesthetized, rinsing the lungs with 1 mL of normal saline three times and collected bronchoalveolar lavage fluid. The total living cell count was performed by an ADVIA 2120i.

[2] = tested on: lung MDSCs and macrophages; test: Flow cytometry of MDSCs and macrophages in lung tissue of BLM mice; format: in vivo, C57BL/6 mice; settings: 30 mg·kg^−1 i.p.
Description: as §1
We analysed the percentage of MDSCs and macrophages by Flow cytometry (FCM). ^22 Use scissors to cut approximately 30 mg of mouse lung tissues into small pieces and use 5 mL of collagenase‐IV with a concentration of 1 mg·mL^−1, digested at 37°C for at least 1 hour. Centrifuge at 400 g for 5 minutes and discard the supernatant. Then, add another 5 mL PBS to resuspend, after precipitation, taken the supernatant and mixed with the corresponding fluorochromium binding antibody, incubate for 30 minutes in the dark at 4°C (MDSCs with PE^−CD11b^−, FITC^−Gr1^− conjugated dual labelling and macrophages with PE^−F4/80^−, FITC^−CD11b^− conjugated dual labelling). The data were acquired with a FACS Canton II NovoCyte (ACEA).

LO2 cells = test: Cytotoxicity in normal human liver cell line; format: cell-based; settings: 24 hours exposure
Description: The cell viability of YTH‐60 and Nintedanib treatment was performed by MTT and CCK8 assay. Briefly, the exponentially growing cells were seeded in 96‐well (2‐5 × 10^3 cells·well^−1) and cultured for 24 hours. The cells were treated with different concentrations of YTH‐60 (0, 0.625, 1.25, 2.5, 5, 10 µmol·L^−1), after treatment for 24, 48 and 72 hours, respectively, a volume of 20 μL of 5 mg·mL^−1 MTT solution or 10 μL CCK‐8 solution was added to each well and incubation for 2‐4 hours at 37°C. Finally, the 96‐well plates were read on Multiskan FC microplate spectrophotometer at 570 or 450 nm wavelength.

A549 cells = test: Wound healing assay; format: cell-based, human; settings: A549, combined with TGF‐β1 vs TGF‐β1 alone
Description: A549 cells (1 × 10^6 well^−1) were grown on 6‐well plates in 2 mL 10% FBS DMEM medium. Making a scratch with a sterile 200 μL microtube tip after 24 hours and the scratched cells were washed gently with serum‐free DMEM. Then, TGF‐β1 or YTH‐60 added to their corresponding wells and cultured for 24 hours. Each picture was imaged at three different locations. ImageJ software was used to estimate the percentage of the original width by measuring the width of the scratches.

COc1cc(OC)c(Cl)c(-c2ccc3c(/C=C/c4ccc(N(C)C(=O)CN5CCN(C)CC5)cc4)n[nH]c3c2)c1Cl [YTH‐60, (E)‐N‐(4‐(2‐(6‐(2,6‐dichloro‐3,5‐dimethoxyphenyl)‐1H‐indazol‐3‐yl)vinyl)phenyl)‐N‐methyl‐2‐(4‐methylpiperazin‐1‐yl)acetamide]
infiltrating inflammatory cells in BALF (in words) [1]: significantly reduce the number of infiltrating inflammatory cells | percentage of CD11b^+F4/80^+ cells (macrophages) in lung ([2]; day 14, BLM group 19.9%, sham 9.9%): 9.27% | percentage of CD11b^+Gr1^+ cells (MDSCs) in lung ([2]; day 14, BLM group 20.5%, sham 5.14%): 7.07% | cytotoxicity, viability of LO2 cells (in words) (LO2 cells): inhibited the viability of LO2 cells less than Nintedanib | cell migration (in words) (A549 cells): significantly inhibited cell migration
